Measured values as given in patent US5407940A, “New ellipticine compounds” (priority 1992, dated 1995).
Like-named read-outs stand apart in the source and are kept apart here.

Tests used:
M5076 sarcoma = assay: Anti-tumour activity against M5076 sarcoma; type: in vivo, female B6D2F1 mice; conditions: for Survivors on d90 / median T/C (survival): i.p., d1, d5, d9, d13
Experimental: (§1) M5076 sarcoma is supplied by NCI (Frederick, USA). The tumour cells (10^7 cells/animal) were inoculated on d0 into the peritoneal cavity of female B6D2F1 mice. The compounds were administered by the i.p. route on d1, d5, d9 and d13 at the doses indicated. The surviving animals on d90 were recorded and the T/C survival (%) was calculated.

KB-3-1 = assay: Cytotoxicity, sensitive line KB-3-1; type: cell-based; conditions: Homo sapiens, KB 3-1, 96 h, read-out: Cytotoxicity IC50, sensitive KB-3-1
Excerpt: (§2) The cells are distributed on microplates and exposed to the cytotoxic compounds.

colon 38 = assay: Anti-tumour activity against colon 38; type: in vivo, female B6D2F1 mice; conditions: i.v., d2 and d9, d25
Experimental: Colon 38 (supplied by NCI, Frederick, USA) was inserted in the form of fragments by the subcutaneous route into female B6D2F1 mice. The compounds were administered by the i.v. route on d2 and d9 and the anti-tumour activity was determined on […] by measuring the tumour volume (T/C volume, %).

S1 = assay: Cytotoxicity, sensitive line S1; type: cell-based; conditions: Homo sapiens, 96 h, read-out: Cytotoxicity IC50, sensitive S1
Excerpt: as §2

P388/VCR-20 [1] = assay: cells; conditions: Mus musculus, P388, 48 h, read-out: Cytotoxicity IC50, resistant P388/VCR-20
leukaemia P388 [2] = assay: Anti-tumour activity against leukaemia P388 in vivo; conditions: for Survivors on d60/total no. of mice / T/C: intraperitoneal, day 1; for cures, treated mice (comparators): reference compounds, dose not given
L1210 = assay: Cytotoxicity, line L1210 (Microculture Tetrazolium Assay); type: cell-based, murine; conditions: for IC50: Mus musculus, L1210, 48 h, read-out: Cytotoxicity IC50, line L1210
Excerpt: as §2

[3] = tested on: Lewis pulmonary carcinoma; assay: Anti-tumour activity against Lewis pulmonary carcinoma; type: in vivo, female B6D2F1 mice; conditions: for Survivors on d90 / median T/C (survival) / median T/C (volume) d20: i.v., d3, d6, d9; for activity against this very resistant model (in words): adriamycin at the maximum tolerated dose
leukaemia P388 [4] = conditions: mouse, in vivo
P388 = assay: Cytotoxicity, sensitive line P388 (Microculture Tetrazolium Assay); type: cell-based, murine; conditions: Mus musculus, P388, 48 h, read-out: Cytotoxicity IC50, sensitive P388
Excerpt: as §2

KB-A1 [5] = assay: cells; conditions: Homo sapiens, KB-A1, 96 h, read-out: Cytotoxicity IC50, resistant KB-A1
S1/tMDR [6] = assay: cells; conditions: Homo sapiens, 96 h, read-out: Cytotoxicity IC50, resistant S1/tMDR
S1/tMDR [7] = tested on: S1/tMDR
KB-A1 [8] = tested on: KB-A1
P388/VCR-20 [9] = tested on: P388/VCR-20
[10] = Anti-tumour activity against M5076 sarcoma; type: in vivo, female B6D2F1 mice; conditions: mouse, in vivo, ip; read-out: maximum tolerated dose
Experimental: as §1

[11] = maximum tolerated dose (2 mg/kg)

## COc1cccc2c1C(=O)c1c(O)c3c(c(O)c1C2=O)C[C@@](O)(C(=O)CO)C[C@@H]3O[C@H]1C[C@H](N)[C@H](O)[C@H](C)O1 [ADR, adriamycin, reference compound]
M5076 sarcoma; 5 mg/kg
  Survivors on d90: 4/10
  median T/C (survival): 320%
KB-3-1
  IC50: 5 nM
Colon 38; 15 mg/kg
  median T/C (tumour volume): 0%
S1
  IC50: 36 nM
P388/VCR-20 [1]
  IC50: 340 nM
Leukaemia P388 [2]; 10 mg/kg
  Survivors on d60/total no. of mice: 2/10
  T/C: 290%
Leukaemia P388 [2]
  cures, treated mice (comparators): 2
L1210
  IC50: 26.4 nM
[3]; 5 mg/kg
  Survivors on d90: 2/10
  median T/C (survival): 125%
  median T/C (volume) d20: 44%
[3]; 10 mg/kg
  Survivors on d90: 3/10
  median T/C (survival): 128%
  median T/C (volume) d20: 1%
[3]; 2,5 mg/kg
  Survivors on d90: 0/10
  median T/C (survival): 108%
  median T/C (volume) d20: 63%
[3]
  activity against this very resistant model (in words): far less active
Leukaemia P388 [4]
  gravimetric variation: -0.7 g
P388
  IC50: 20 nM
KB-A1 [5]
  IC50: 6870 nM

## Cc1c2ccnc(C(=O)NCCN(C)C)c2cc2c3cc(O)ccc3n(C)c12 [Example 1, 1-(N,N-Dimethylaminoethylaminocarbonyl)-5,6-dimethyl-9-hydroxy-6H-pyrido[4,3-b]carbazole]
M5076 sarcoma; 5 mg/kg
  Survivors on d90: 0/10
  median T/C (survival): 168%
M5076 sarcoma; 10 mg/kg
  Survivors on d90: 4/10
  median T/C (survival): 301%
M5076 sarcoma; 20 mg/kg
  activity against that tumour (in words): very active
  Survivors on d90: 6/10
  median T/C (survival): > 352%
KB-3-1; 4 days incubation
  IC50: 12 nM
S1/tMDR [6]
  IC50: 25 nM
S1/tMDR [7]; S1/tMDR vs S1
  resistance factor: 0,5
S1/tMDR [7]; vs S1
  sensitivity of resistant line S1/tMDR relative to corresponding sensitive line: more sensitive
Colon 38; 20 mg/kg
  median T/C (tumour volume): 41%
Colon 38; 40 mg/kg
  median T/C (tumour volume): 16%
Colon 38; 60 mg/kg
  median T/C (tumour volume): 0%
S1; 4 days incubation
  IC50: 49 nM
KB-A1 [8]; KB-A1 vs KB-3-1
  resistance factor: 10
P388/VCR-20 [1]
  IC50: 4 nM
Leukaemia P388 [2]; 5 mg/kg
  Survivors on d60/total no. of mice: 1/10
  T/C: 163%
Leukaemia P388 [2]; 10 mg/kg
  Survivors on d60/total no. of mice: 1/10
  T/C: 183%
Leukaemia P388 [2]; 20 mg/kg
  Survivors on d60/total no. of mice: 2/10
  T/C: 220%
Leukaemia P388 [2]; 30 mg/kg
  Survivors on d60/total no. of mice: 3/10
  T/C: 200%
Leukaemia P388 [2]; 60 mg/kg
  Survivors on d60/total no. of mice: 3/10
  T/C: 257%
Leukaemia P388 [2]; all doses employed
  long-term survivors over all doses employed: all the doses employed giving long-term survivors
Leukaemia P388 [2]; single administration of 30 mg/kg
  cures, treated mice: 7 out of 10
L1210; L1210
  times more cytotoxic than adriamycin: approximately 9 times
  times more cytotoxic than elliptinium acetate: ~46 times
L1210; 2 days incubation
  IC50: 2.6 nM
[3]; 20 mg/kg
  Survivors on d90: 6/10
  median T/C (survival): > 300%
  median T/C (volume) d20: 1%
[3]; 40 mg/kg
  curative for % of the animals: 100%
  Survivors on d90: 10/10
  median T/C (survival): > 300%
  median T/C (volume) d20: 0%
[3]; 60 mg/kg
  Survivors on d90: 6/10
  median T/C (survival): > 300%
  median T/C (volume) d20: 0%
[3]
  activity against this very resistant model (in words): very active
P388/VCR-20 [9]; P388/VCR-20 vs P388
  resistance factor: 0,8
P388/VCR-20 [9]; vs P388
  sensitivity of resistant line P388/VCR-20 relative to corresponding sensitive line: more sensitive
P388; 2 days incubation
  IC50: 5 nM
KB-A1 [5]
  IC50: 120 nM

## Cc1c2cc[n+](C)cc2c(C)c2c1[nH]c1ccc(O)cc12 [elliptinium acetate, reference compound]
[10]
  MTD: 2 mg/kg
M5076 sarcoma; 1 mg/kg
  Survivors on d90: 1/10
  median T/C (survival): 153%
M5076 sarcoma; 2 mg/kg
  Survivors on d90: 0/10
  median T/C (survival): 180%
M5076 sarcoma; [11]
  activity against that tumour (in words): not very active
  survivors: no animal has survived
KB-3-1
  IC50: 226 nM
KB-A1 [8]
  resistance factor: 19
Leukaemia P388 [2]; 5 mg/kg
  Survivors on d60/total no. of mice: 0/10
  T/C: 171%
Leukaemia P388 [2]; at the optimum dose used, equitoxic doses
  gravimetric variation: -4 g
Leukaemia P388 [2]; mouse, in vivo
  toxic at dose and above: ≥ 5 mg/kg
Leukaemia P388 [2]
  cures, treated mice (comparators): none
L1210
  IC50: 139 nM
KB-A1 [5]
  IC50: 4320 nM
